Assay results from patent US20140243197A1, “CARBAMOYLMETHOXY- AND CARBAMOYLMETHYLTHIO- AND CARBAMOYLMETHYLAMINO BENZAMIDES FOR COMBATING INVERTEBRATE PESTS” (BASF SE, priority 2011, published 2014).

Legend:
[1] = test system: Spodoptera eridiana; assay: Southern armyworm foliar spray test on lima bean plants, mortality; type: in vivo; conditions: 96 h, 2nd instar larvae, lima bean foliage sprayed, assessed 4 days after treatment, read-out: mortality in comparison with untreated controls
Procedure: The active compounds were formulated in cyclohexanone as a 10,000 ppm solution supplied in tubes. The tubes were inserted into an automated electrostatic sprayer equipped with an atomizing nozzle and they served as stock solutions for which lower dilutions were made in 50% acetone:50% water (v/v). A nonionic surfactant (Kinetic) was included in the solution at a volume of 0.01% (v/v).
Lima bean plants (variety Sieva) were grown 2 plants to a pot and selected for treatment at the 1st true leaf stage. Test solutions were sprayed onto the foliage by an automated electrostatic plant sprayer equipped with an atomizing spray nozzle. The plants were dried in the sprayer fume hood and then removed from the sprayer. Each pot was placed into perforated plastic bags with a zip closure. About 10 to 11 armyworm larvae were placed into the bag and the bags zipped closed. Test plants were maintained in a growth room at about 25° C. and about 20-40% relative humidity for 4 days, avoiding direct exposure to fluorescent light (24 hour photoperiod) to prevent trapping of heat inside the bags. Mortality and reduced feeding were assessed 4 days after treatment, compared to untreated control plants.

[2] = test system: Plutella xylostella; assay: Diamond backmoth leaf-dip test on cabbage leaves, mortality; type: in vivo; conditions: 3rd instar larvae, cabbage leaves dipped, recorded 72 hours after treatment, read-out: mortality in comparison with untreated controls
Procedure: The active compound was dissolved at the desired concentration in a mixture of 1:1 (vol:vol) distilled water: aceteone. Surfactant (Alkamuls® EL 620) was added at a rate of 0.1% (vol/vol). The test solution was prepared at the day of use.
Leaves of cabbage were dipped in test solution and air-dried. Treated leaves were placed in petri dishes lined with moist filter paper and inoculated with ten 3rd instar larvae. Mortality was recorded 72 hours after treatment. Feeding damages were also recorded using a scale of 0-100%.

CNC(=O)CONC(=O)c1cc(Cl)cc(C)c1NC(=O)c1cnn(CC(F)(F)F)c1-c1ncccc1Cl [Compound 1-1, 5-(3-chloro-pyridin-2-yl)-1-(2,2,2-trifluoro-ethyl)-1H-pyrazole-4-carboxylic acid (4-chloro-2-methyl-6-methylcarbamoylmethoxycarbamoyl-phenyl)-amide]
mortality at 500 ppm [1]: 100%
mortality at 500 ppm [2]: 100%
